# Measurements published in US20220047507A1, “MELFLUFEN DOSAGE REGIMENS FOR CANCER” (ONCOPEPTIDES AB, priority 2015, published 2022).
# Several values for one entry are separate records, joined by “and”; a condition that tells them apart may be missing. Identical values can stand only once.
# Key:
# [1] = test system: relapsed-refractory multiple myeloma (RRMM) patients; assay: Efficacy in patients with RRMM, Example 2b, time point (bi); type: in vivo, human
# Method: Example 2: An open label single arm extension on the dose of 40 mg over 30 minutes of Example 1. Intravenous melflufen was administered over 30 minutes on Day 1 of a 21-day cycle or 28-day cycle (in combination with 40 mg dexamethasone (oral or intravenous) treatment on Days 1, 8 and 15) for at least 2 cycles, and up to the stated number of cycles. The cycle length was extended during the Example 2 Clinical Trial from 21 to 28 days per a protocol amendment to allow for a better recovery of neutrophils and thrombocytes before a new cycle is initiated.
# Example 2a results are from a data cut-off of time point (a). Example 2b results are from a data cut-off of time point (bi) for the efficacy data, which was approximately 12 months after time point (a); and from a data cut-off of time point (bii) for the safety data, which was approximately 10 months after time point (a).
# By the data cut-off point (bi), […] (the 40 mg dosage excludes the mass of the salt component) administered over 30 minutes every 3 weeks (21 days) in combination with weekly dexamethasone (day 1, 8 and 15) or every 4 weeks (28 days) in combination with weekly dexamethasone (day 1, 8, 15 and 22).
# […] 10 patients were not evaluable for efficacy evaluation due to rapid early progression (8), or early termination due to adverse events (2).
# [2] = test system: MM cell lines resistant to dexamethasone, bortezomib and melphalan; settings: in vitro; cited from earlier work
# [3] = test system: primary MM cells from patients; settings: in vitro, incl. patients relapsing after bortezomib, lenalidomide, dexamethasone; cited from earlier work
# [4] = Evaluable ≥ 2 cycles, n 30, listed as Melflufen
# [5] = Pomalidomide refractory, Example 2b, efficacy evaluable N = 29
# [6] = Pomalidomide refractory, Example 2b, treated patients N = 39
# [7] = Triple refractory (2 PI/ImiD + 1 ImiD/PI), Example 2b, treated patients N = 39
# [8] = refractory status Alkylator, Example 2b, treated patients N = 39
# [9] = refractory status Cyclophosphamide, Example 2b, efficacy evaluable N = 29
# [10] = refractory status Cyclophosphamide, Example 2b, treated patients N = 39
# [11] = refractory status High dose melphalan, Example 2b, efficacy evaluable N = 29
# [12] = refractory status High dose melphalan, Example 2b, treated patients N = 39
# [13] = refractory status IMiD, Example 2b, treated patients N = 39
# [14] = refractory status Low dose melphalan, Example 2b, efficacy evaluable N = 29
# [15] = refractory status Low dose melphalan, Example 2b, treated patients N = 39
# [16] = refractory status None, Example 2b, efficacy evaluable N = 29
# [17] = refractory status None, Example 2b, treated patients N = 39
# [18] = refractory status PI + IMiD + Alkylator, Example 2b, efficacy evaluable N = 29
# [19] = refractory status PI + IMiD + Alkylator, Example 2b, treated patients N = 39
# [20] = refractory status PI + IMiD, Example 2b, treated patients N = 39
# [21] = refractory status PI, Example 2b, treated patients N = 39
structure (smiles),measurement,setting,value
"CCOC(=O)[C@H](Cc1ccc(F)cc1)NC(=O)[C@@H](N)Cc1ccc(N(CCCl)CCCl)cc1.Cl [melflufen, L-Melphalanyl-4-fluoro-L-phenylalanine ethyl ester]",CRR (≥MR),"[1]; Antibody refractory, Example 2b, efficacy evaluable N = 29",(50)+ %
same,CRR (≥MR),"[1]; Antibody refractory, Example 2b, treated patients N = 39",(33) %
same,Clinical Benefit Rate (CBR),"[1]; Evaluable ≥ 1 cycle, n 40",50%
same,"Minimal Response (MR), patients","[1]; Evaluable ≥ 1 cycle, n 40",8
same,Overall Response Rate (ORR),"[1]; Evaluable ≥ 1 cycle, n 40",30%
same,"Positive Response (PR), patients","[1]; Evaluable ≥ 1 cycle, n 40",9
same,"Progressive Disease (PD), patients","[1]; Evaluable ≥ 1 cycle, n 40",9
same,"Stable Disease (SD), patients","[1]; Evaluable ≥ 1 cycle, n 40",11
same,"Very Good Positive Response (PR), patients","[1]; Evaluable ≥ 1 cycle, n 40",3
same,Clinical Benefit Rate (CBR),"[1]; Evaluable ≥ 2 cycles, n 30",56% and 63%
same,Overall Response Rate (ORR),"[1]; Evaluable ≥ 2 cycles, n 30",41% and 40%
same,"Positive Response (PR), patients","[1]; Evaluable ≥ 2 cycles, n 30",9
same,"Progressive Disease (PD), patients","[1]; Evaluable ≥ 2 cycles, n 30",1
same,"Stable Disease (SD), patients","[1]; Evaluable ≥ 2 cycles, n 30",10
same,"Very Good Positive Response (PR), patients","[1]; Evaluable ≥ 2 cycles, n 30, 40 mg over 30 min + dexamethasone",2
same,"Very Good Positive Response (PR), patients","[1]; Evaluable ≥ 2 cycles, n 30, 40 mg over 30 min + dexamethasone, listed as Melflufen",3
same,Clinical Benefit Rate (CBR),[1]; [4],63%
same,"Minimal Response (MR), patients",[1]; [4],7
same,Overall Response Rate (ORR),[1]; [4],40%
same,median duration of response (DOR),"[1]; Example 2b, 11 events in 12 responding patients",7.7 months
same,median progression free survival (PFS),"[1]; Example 2b, ITT-population (n=40)",4.3 months
same,median progression free survival (PFS),"[1]; Example 2b, PP-population (efficacy evaluable, n=30)",7.9 months
same,increase in PFS compared to pomalidomide+dexamethasone and carfilzomib,"[1]; Example 2b, efficacy evaluable population",around 4 months
same,CRR (≥MR),[1]; [5],(55) %
same,ORR (≥PR),[1]; [5],(36) %
same,CRR (≥MR),[1]; [6],(44) %
same,ORR (≥PR),[1]; [6],(25) %
same,CRR (≥MR),"[1]; Triple refractory (2 PI/ImiD + 1 ImiD/PI), Example 2b, efficacy evaluable N = 29",(70) %
same,CRR (≥MR),[1]; [7],(44) %
same,ORR (≥PR),[1]; [7],(25) %
same,"best response of minimal response (MR) or better, n patients",[1]; of 30 evaluable,15 and 19
same,"partial response (PR) or better, n patients",[1]; of 30 evaluable,12
same,"best response of PR or better, n patients",[1]; of the 8 patients refractory to an alkylator as their last line of treatment,5
same,CRR (≥MR),"[1]; refractory status Alkylator, Example 2b, efficacy evaluable N = 29",(73) %
same,CRR (≥MR),[1]; [8],(55) %
same,ORR (≥PR),[1]; [8],(36) %
same,CRR (≥MR),[1]; [9],(80) %
same,ORR (≥PR),[1]; [9],(60) %
same,CRR (≥MR),[1]; [10],(53) %
same,ORR (≥PR),[1]; [10],(40) %
same,CRR (≥MR),[1]; [11],(100) %
same,ORR (≥PR),[1]; [11],(67) %
same,CRR (≥MR),[1]; [12],(100) %
same,ORR (≥PR),[1]; [12],(33) %
same,CRR (≥MR),"[1]; refractory status IMiD, Example 2b, efficacy evaluable N = 29",(63) %
same,CRR (≥MR),[1]; [13],(47) %
same,ORR (≥PR),[1]; [13],(28) %
same,CRR (≥MR),[1]; [14],(60) %
same,ORR (≥PR),[1]; [14],(40) %
same,CRR (≥MR),[1]; [15],(67) %
same,ORR (≥PR),[1]; [15],(33) %
same,CRR (≥MR),[1]; [16],(100) %
same,ORR (≥PR),[1]; [16],(100) %
same,CRR (≥MR),[1]; [17],(100) %
same,ORR (≥PR),[1]; [17],(100) %
same,CRR (≥MR),[1]; [18],(44) %
same,ORR (≥PR),[1]; [18],(33) %
same,CRR (≥MR),[1]; [19],(40) %
same,ORR (≥PR),[1]; [19],(20) %
same,CRR (≥MR),"[1]; refractory status PI + IMiD, Example 2b, efficacy evaluable N = 29",(59) %
same,CRR (≥MR),[1]; [20],(46) %
same,ORR (≥PR),[1]; [20],(25) %
same,CRR (≥MR),"[1]; refractory status PI, Example 2b, efficacy evaluable N = 29",(63) %
same,CRR (≥MR),[1]; [21],(50) %
same,ORR (≥PR),[1]; [21],(25) %
same,cytotoxic activities in resistant MM cell lines,[2],"concentrations similar to those observed in the parenteral, non-resistant cell lines"
same,cytotoxic activity in primary MM cells,[3],Potent cytotoxic activity
